Results from ChEMBL document CHEMBL4387715, “Singlet oxygen-activatable Paclitaxel prodrugs via intermolecular activation for combined PDT and chemotherapy” (Bioorg Med Chem Lett, 2019).
Activity calls are given as the source filed them. The rule behind the calls is not given here.

Assays:
[1] = Lipophilicity, log D of the compound at pH 7.4; type: physicochemical; settings: buffer
[2] = Dark toxicity in rat AY27 cells assessed as reduction in cell viability at 0.025 to 1.25 uM preincubated for 2 hrs followed by 30 mins incubation under dark condition and measured after 24 hrs by MTT assay; type: cell-based; settings: ay-27, 1.25 µM
[3] = Photocytotoxicity against rat AY27 cells assessed as cell death at 0.25 uM incubated for 2 hrs followed by 10 mW/cm2 laser light irradiation for 30 mins and measured after 24 hrs in presence of Hexyl-5-aminolevulinic acid by MTT assay relative to control; type: functional, AY-27
AY-27 = assay: Photocytotoxicity against rat AY27 cells assessed as cell death at 0.025 to 1.25 uM incubated for 2 hrs followed by 10 mW/cm2 laser light irradiation for 30 mins and measured after 24 hrs by MTT assay; type: functional, cell-based
[4] = Lipophilicity, log D of the compound at pH 7.4 by shake flask method; type: physicochemical; settings: buffer
[5] = Dark toxicity in rat AY27 cells assessed as reduction in cell viability at 0.025 to 1.25 uM preincubated for 2 hrs followed by 30 mins incubation under dark condition measured after 24 hrs in presence of Hexyl-5-aminolevulinic acid by MTT assay; type: cell-based; settings: ay-27, 1.25 µM
[6] = Drug localization in mitochondria of rat AY27 cells at 0.5 uM assessed as protoporphyrin IX level after 2 hrs by Mitotracker deep Red staining-based confocal fluorescence microscopic method; type: ADME; settings: ay-27, 2 h
[7] = Photodynamic anticancer activity against rat AY27 cells assessed as cell death at 0.5 uM incubated for 2 hrs followed by 10 mW/cm2 laser light irradiation for 30 mins and measured after 24 hrs by MTT assay relative to control; type: functional, AY-27
[8] = Drug uptake in rat AY27 cells at 1 uM by texas red probe-based fluorescence microscopy; type: ADME, cell-based; settings: ay-27, 1 µM, TDE = time-dependent effect
[9] = Drug localization in mitochondria of rat AY27 cells at 0.5 uM after 30 mins by Mitotracker deep Red staining-based confocal fluorescence microscopy; type: ADME; settings: ay-27, 0.5 h
[10] = Drug uptake in rat AY27 cells assessed per cell at 5 uM measured after 120 mins by fluorescence assay; type: ADME, cell-based; settings: ay-27, 2 h

| Compound | logD [1] | Activity [2] | Activity [3] | Activity (AY-27) | logD [4] | Activity [5] | Drug uptake [6] | Activity [7] | Drug uptake [8] | Drug uptake [9] | Drug uptake [10] |
| --- | --- | --- | --- | --- | --- | --- | --- | --- | --- | --- | --- |
| CC(=O)O[C@H]1C(=O)[C@@]2(C)[C@H]([C@H](OC(=O)c3ccccc3)[C@]3(O)C[C@H](OC(=O)[C@H](O)[C@@H](NC(=O)c4ccccc4)c4ccccc4)C(C)=C1C3(C)C)[C@]1(OC(C)=O)CO[C@@H]1C[C@@H]2O [PACLITAXEL] | 3.6 | – | – | – | – | – | – | – | – | – | – |
| CC(=O)O[C@H]1C(=O)[C@@]2(C)[C@H]([C@H](OC(=O)c3ccccc3)[C@]3(O)C[C@H](OC(=O)C(OC(=O)/C=C/N4CCC(COCCC[P+](c5ccccc5)(c5ccccc5)c5ccccc5)CC4)[C@@H](NC(=O)c4ccccc4)c4ccccc4)C(C)=C1C3(C)C)[C@]1(OC(C)=O)CO[C@@H]1C[C@@H]2O.[Br-] (stereo partly specified) | – | Non-Toxic | 80% | inactive | 1.3 | Non-Toxic | – | – | – | – | – |
| CCCCCCOC(=O)CCC(=O)CN [HEXAMINOLEVULINATE] | – | – | – | – | – | – | Active | 40% | – | – | – |
| CCN(CC)c1ccc2c(-c3ccccc3C(=O)OCC3CCN(/C=C/C(=O)OC(C(=O)O[C@H]4C[C@@]5(O)[C@@H](OC(=O)c6ccccc6)[C@@H]6[C@]7(OC(C)=O)CO[C@@H]7C[C@H](O)[C@@]6(C)C(=O)[C@H](OC(C)=O)C(=C4C)C5(C)C)[C@@H](NC(=O)c4ccccc4)c4ccccc4)CC3)c3ccc(=[N+](CC)CC)cc-3oc2c1.[Cl-] (stereo partly specified) | – | Non-Toxic | 84% | inactive | 1.9 | Non-Toxic | – | – | Tde | Active | 0.68 fmol |
| CC(=O)O[C@H]1C(=O)[C@@]2(C)[C@H]([C@H](OC(=O)c3ccccc3)[C@]3(O)C[C@H](OC(=O)C(OC(=O)/C=C/N4CCC(COC(=O)c5cc[n+](C)cc5)CC4)[C@@H](NC(=O)c4ccccc4)c4ccccc4)C(C)=C1C3(C)C)[C@]1(OC(C)=O)CO[C@@H]1C[C@@H]2O.[Cl-] (stereo partly specified) | – | Non-Toxic | 82% | inactive | 1 | Non-Toxic | – | – | – | – | – |
